From patent publication US11202815B2, “Composition for preventing, treating or improving prostate disease containing acanthopanax sessiliflorus, phragmites rhizome, and pinus densiflora extracts as active ingredient” (GENOME & MEDICINE CO., LTD., priority 2017, dated 2021)

Tested on: 5α-reductase type 2 (SRD5A2)
Test: Western blotting of 5α-reductase type 2 (SRD5A2) protein expression level
Format: cell-based
Conditions: 0.40 mM, cultured for 24 hours, FIG. 8
Description: 5α-reductase had total three types of subtypes (types 1, 2 and 3), in which types 1 and 3 have been studied for diseases such as male hair loss or acne and type 2 was directly associated with benign prostatic hyperplasia.
As a result, in Example 6, a 5α-reductase type 2 (SRD5A2) protein expression level was analyzed by Western blotting to confirm 5α-reductase inhibitory activity.
Specifically, the cells were divided at a concentration of 2.0×10^5 cell/well and treated with 100 μg/ml of the Acanthopanax sessiliflorus extract, 600 μg/ml of the Pinus densiflora extract, 600 μg/ml of the Phragmites rhizome extract, or 350 μg/ml of the complex extract (Extract 4) obtained by mixing the extracts at 4:2:1 in a PRMI1640 medium containing 1% fetal bovine serum (FBS), and then cultured for 24 hours.
Finasteride, which has been sold as a 5α-reductase inhibitor on the market, was used as a positive control.
Then, the cultured cells were lysed, filtered with a 0.45 μm mesh, and subjected to Western blotting according to a procedure shown in FIG. 7.
Specifically, a primary antibody (Anti-SRD5A2, Sigma) was diluted to 1:200 and treated, and a secondary antibody (m-IgGP-HRP, Santa Cruz) was diluted to 1:3000 and treated, and then the expression levels of 5α-reductase type 2 according to treatment of each extract and each compound were confirmed.

Row | Compound | expression levels of 5α-reductase type 2
1 | COc1cc([C@@H]2OC[C@@H]3[C@H]2CO[C@H]3c2cc(OC)c(O[C@@H]3O[C@H](CO)[C@@H](O)[C@H](O)[C@H]3O)c(OC)c2)cc(OC)c1O[C@@H]1O[C@H](CO)[C@@H](O)[C@H](O)[C@H]1O [acanthoside D] | significantly reduced
2 | O=C(O)/C=C/c1ccc(O)cc1 [p-coumaric acid] | significantly reduced
